In patent publication US20160228452A1, “TREATMENT OF METABOLIC DISEASES BY INHIBTION OF HTR2A OR HTR3” (Korea Advanced Institute of Science and Technology, priority 2014, published 2016):
“Also recorded” adds a separate entry of the source.

Assays:
Htr3 [1] = target: T1, Htr3 (Mus musculus, UniProt P23979); test: cAMP assay (competitive ELISA) in immortalized brown adipocytes; assay type: cell-based
T1 construct: we explored the direct actions of Htr3 on BAT using immortalized brown adipocytes (IBAs); endogenous in cells; host or cells: differentiated immortalized brown adipocytes (IBAs)
T1 sequence (P23979 24-489): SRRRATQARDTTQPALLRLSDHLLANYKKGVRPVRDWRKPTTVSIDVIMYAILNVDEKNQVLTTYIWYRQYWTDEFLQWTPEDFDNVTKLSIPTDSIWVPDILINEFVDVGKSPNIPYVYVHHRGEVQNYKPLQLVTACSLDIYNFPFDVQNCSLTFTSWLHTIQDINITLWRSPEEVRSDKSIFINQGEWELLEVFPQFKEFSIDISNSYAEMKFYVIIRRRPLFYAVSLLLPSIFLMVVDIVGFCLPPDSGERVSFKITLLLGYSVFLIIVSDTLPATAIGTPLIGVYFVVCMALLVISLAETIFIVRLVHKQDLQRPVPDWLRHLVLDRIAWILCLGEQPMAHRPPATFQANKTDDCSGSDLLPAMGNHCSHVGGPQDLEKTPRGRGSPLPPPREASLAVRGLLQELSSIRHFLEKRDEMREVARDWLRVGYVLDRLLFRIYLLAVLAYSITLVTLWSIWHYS
T1 sequence (Q9JHJ5 22-437 partner): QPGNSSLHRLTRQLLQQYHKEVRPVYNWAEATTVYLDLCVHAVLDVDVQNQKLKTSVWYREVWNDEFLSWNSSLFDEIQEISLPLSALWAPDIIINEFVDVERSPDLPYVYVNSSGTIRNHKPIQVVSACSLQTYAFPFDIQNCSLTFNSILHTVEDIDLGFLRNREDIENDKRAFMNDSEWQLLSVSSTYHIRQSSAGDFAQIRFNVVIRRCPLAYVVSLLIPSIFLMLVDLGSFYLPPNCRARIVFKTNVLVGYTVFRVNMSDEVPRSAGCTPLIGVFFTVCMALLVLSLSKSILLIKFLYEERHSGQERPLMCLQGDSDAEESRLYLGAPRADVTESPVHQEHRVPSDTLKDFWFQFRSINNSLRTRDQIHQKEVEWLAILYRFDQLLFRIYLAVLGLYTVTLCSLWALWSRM
Procedure: (§1) IBAs were cultured in DMEM supplemented with 10% FBS and P/S in a humidified atmosphere of 5% CO2 at 37° C.^32. After reaching 95% confluence, the cells were induced to differentiate using DMEM with 10% FBS, 0.5 μg/mL insulin, 1 nM T3, 0.125 mM indomethacin, 2 μg/mL dexamethasone, 0.5 μM IBMX and P/S (day 0). After two days, the medium was replaced with DMEM supplemented with 10% FBS, 0.5 μg/mL insulin, 1 nM T3 and P/S (day 2), and it was changed every two days from days 4 to 8. We confirmed that these cell lines are free from Mycoplasma infection.
Differentiated IBAs were treated with 1 uM ondansetron or 100 nM m-CPBG or 1 uM CL-316243 for 15 min. 1 uM […] was used as a positive control. The cAMP competitive ELISA (Promega) was performed according to the manufacturer's instruction. Briefly, cAMP was extracted by adding 0.1 M HCl with 0.5% triton X-100 to the cells. After centrifugation at 600 g for 10 min, the supernatant was used for the determination of cAMP levels by competitive cAMP ELISA.

Htr3 [2] = target: T1, Htr3; test: OCR assay (Seahorse XF24) in IBAs; assay type: cell-based; settings: fully differentiated IBAs pretreated 30 min, then β3 agonist CL-316243
Procedure: IBAs were cultured in DMEM supplemented with 10% FBS and P/S in a humidified atmosphere of 5% CO2 at 37° C.^32. After reaching 95% confluence, the cells were induced to differentiate using DMEM with 10% FBS, 0.5 μg/mL insulin, 1 nM T3, 0.125 mM indomethacin, 2 μg/mL dexamethasone, 0.5 μM IBMX and P/S (day 0). After two days, the medium was replaced with DMEM supplemented with 10% FBS, 0.5 μg/mL insulin, 1 nM T3 and P/S (day 2), and it was changed every two days from days 4 to 8. […] The OCRs of the cells were measured using a Seahorse XF analyzer (Seahorse Bioscience, Billerica, Mass., USA). After seeding IBAs on an XF-24 plate, the cells were incubated and differentiated using the protocol described above. Fully differentiated IBAs were pre-treated with PBS and ondansetron for 30 min. Then, the IBAs were treated with the β3 agonist (CL-316243) and the mitochondrial inhibitors oligomycin and rotenone/antimycin. The OCRs were calculated and recorded by a sensor cartridge and the Seahorse XF-24 software.

Htr3 [3] = target: T1, Htr3; test: Western blot for phosphorylation of PKA pathway components in IBAs; assay type: cell-based; settings: IBAs pretreated with ondansetron, in the presence of β3-adrenergic receptor agonist
Procedure: as §1
Whole-cell lysates were extracted by incubating cells in RIPA buffer (25 mM Tris-HCl pH 7.6, 150 mM NaCl, 1% NP-40, 1% sodium deoxycholate, 0.1% SDS) plus protease inhibitors (Roche). Supernatant was collected following a brief centrifuge, and protein concentrations in the supernatant were determined using the BCA Protein Assay Kit (Thermo Scientific, Rockford, Ill., USA). The cell lysates were then mixed with equal volumes of 2× Laemmli buffer (4% SDS, 20% glycerol, 10% 2-mercaptoethanol, 0.01% bromophenol blue, and 120 mM Tris-HCl, pH 6.8) and boiled for 5 min at 95° C. Then, the protein samples were separated by SDS-PAGE and transferred to a PVDF membrane (Millipore). […]

Htr3 [4] = target: T1, Htr3; test: Real-time PCR of thermogenic genes in IBAs; assay type: cell-based; settings: 2 h after ondansetron treatment
Procedure: as §1
(§2) Total RNA was extracted from the mouse tissues or cell lines using TRIzol reagent (Invitrogen) according to the manufacturer's protocol. After TURBO DNase (Invitrogen) treatment, 2 μg of total RNA was used to generate complementary DNA with Superscript III reverse transcriptase (Invitrogen). To analyze gene expression, real-time PCR was performed with a ViiA 7 Real-Time PCR system (Applied Biosystems) and the Power SYBR Green PCR master mix (Applied Biosystems). Relative quantification was based on the ddCt method, and ActB was used as an endogenous control (internal control).

Htr2a [5] = target: T2, Htr2a (Mus musculus, UniProt P35363); test: Glycerol release assay (lipolysis) in 3T3-L1 mature adipocytes; assay type: cell-based, murine; settings: 24 h
Procedure: (§3) Murine 3T3-L1 cells (American Type Culture Collection) were cultured in DMEM supplemented with 10% fetal calf serum and 100 μg/mL P/S in a humidified atmosphere of 5% CO2 at 37° C. Two days after reaching confluence, the cells were induced to differentiate using medium supplemented with 0.5 mM IBMX, […] and 1 μM dexamethasone (day 0). After two days, the medium was replaced with DMEM supplemented with […] in 10% FBS and P/S (day 2), and it was changed every two days from days 4 to 8.
Lipolysis was measured as the rate of glycerol release using a free glycerol reagent (Sigma) following the manufacturer's protocol. Briefly, fully differentiated 3T3-L1 adipocytes in a 24-well plate were incubated with 5-HT or DOI in Krebs Ringer phosphate buffer (136 mM NaCl, 4.7 mM KCl, 10 mM NaPO4, 0.9 mM MgSO4, and 0.9 mM CaCl2) containing 4% fatty acid-free bovine serum albumin (Sigma) for 24 h. Isoproterenol was used as a positive control. After incubation, 10 μL of the cell culture supernatant was mixed with 0.8 mL of the free glycerol reagent, and the mixture was then incubated at 37° C. for 5 min. The absorbance of the sample was determined at 540 nm using a spectrophotometer (DU730 Life Science UV/Vis, Beckman Coulter, Indianapolis, Ind., USA). The amount of released glycerol was expressed relative to the cellular protein content.

[6] = tested on: SV cells from Tph1 FKO mice; test: Ex vivo differentiation of SVF from BAT of Tph1 FKO mice, Ucp1 mRNA; assay type: cell-based; settings: after 8 days of differentiation
Procedure: The stromal vascular fraction of epididymal, inguinal and BAT from 6- to 7-week-old mice was separated by collagenase digestion. Briefly, the adipose tissues were dissected, minced and digested with 0.2% collagenase A (Roche) in Hank's balanced salts solution (Sigma) for 45 min at 37° C. with constant shaking. Mature adipocytes and connective tissues were separated from the cell pellet by centrifugation at 800×g for 10 min at 4° C. The cell pellet was then suspended with RBC lysis buffer (Sigma) and filtered through a 40-μm mesh filter (BD bioscience). The pelleted stromal vascular cells (SVCs) were re-suspended in DMEM containing 10% FBS and seeded in 6-well plates for adipogenic differentiation.
as §2

Htr2a [7] = target: T2, Htr2a; test: Real-time PCR of lipogenic genes in 3T3-L1 mature adipocytes; assay type: cell-based, murine
Procedure: as §3, §2

Htr2a [8] = target: T2, Htr2a; test: Oil Red O staining of 3T3-L1 adipocytes; assay type: cell-based, murine; settings: treatment during differentiation, absorbance at 520 nm
Procedure: Murine 3T3-L1 cells (American Type Culture Collection) were cultured in DMEM supplemented with 10% fetal calf serum and 100 μg/mL P/S in a humidified atmosphere of 5% CO2 at 37° C. Two days after reaching confluence, the cells were induced to differentiate using medium supplemented with 0.5 mM IBMX, 1 mg/mL insulin and 1 μM dexamethasone (day 0). After two days, the medium was replaced with DMEM supplemented with 1 mg/mL insulin in 10% FBS and P/S (day 2), and it was changed every two days from days 4 to 8. After full differentiation (day 8), 3T3-L1 adipocytes were fixed with 3.7% (w/v) formaldehyde in PBS for 15 min at room temperature and then washed three times with PBS. Then, the cells were stained with filtered Oil Red 0 solution (1.5 mg/mL 60% (v/v) isopropanol) for 30 min and then rinsed twice with distilled water. To quantify the amount of Oil Red 0 staining, the cells were eluted with 100% isopropranol for 10 min, and the absorbance densities of the extracts were measured at 520 nm using a VersaMax microplate reader (Molecular Devices, Sunnyvale, Calif., USA).

T2 sequence (P35363 whole entry): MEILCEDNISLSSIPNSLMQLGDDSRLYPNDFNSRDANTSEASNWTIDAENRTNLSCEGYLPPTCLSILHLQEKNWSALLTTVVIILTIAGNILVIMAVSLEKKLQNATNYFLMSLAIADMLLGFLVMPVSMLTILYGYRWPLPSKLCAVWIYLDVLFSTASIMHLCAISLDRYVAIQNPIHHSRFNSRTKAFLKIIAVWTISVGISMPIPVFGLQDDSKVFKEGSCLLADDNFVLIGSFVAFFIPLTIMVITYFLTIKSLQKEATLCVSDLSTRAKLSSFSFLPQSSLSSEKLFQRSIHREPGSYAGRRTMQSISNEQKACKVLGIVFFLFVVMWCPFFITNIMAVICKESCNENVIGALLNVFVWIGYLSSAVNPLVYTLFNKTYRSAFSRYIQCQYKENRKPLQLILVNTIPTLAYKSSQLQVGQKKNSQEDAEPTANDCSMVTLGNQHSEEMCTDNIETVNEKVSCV

For `Cc1nccn1CC1CCc2c(c3ccccc3n2C)C1=O` (racemic) [ondansetron, (RS)-9-methyl-3-[(2-methyl-1H-imidazol-1-yl)methyl]-2,3-dihydro-1H-carbazol-4(9H)-one], which “cAMP level after β3AR stimulation” value (Htr3 [1]; IBAs pretreated with 1 uM ondansetron, in the presence of β3-adrenergic receptor agonist CL 316243) is on record?
Its value is “increased cAMP levels”.

And the “cAMP level in the absence of β3AR agonist” value (Htr3 [1]; IBAs, 1 uM ondansetron or 100 nM m-CPBG, 15 min)?
Its value is “did not affect cAMP levels”.

What about the “oxygen consumption rate (OCR)” value (Htr3 [2]) of the same compound?
Its value is “increased the OCR synergistically; also recorded: increased the oxygen consumption rate”.

What about the “phosphorylation of HSL and PKA substrate (PKA pathway components) after β3AR stimulation” value (Htr3 [3]) of the same compound?
The value was “increased phosphorylation”.

What about the “mRNA expression of thermogenic genes (Ucp1, Ppargc1a)” value (Htr3 [4]) of the same compound?
The value was “increased”.

For `NCCc1c[nH]c2ccc(O)cc12` [5-HT, 5-hydroxytryptamine], which “glycerol release (lipolysis)” value (Htr2a [5]) is on record?
Its value is “suppressed lipolysis; also recorded: reduced the glycerol release”.

And the “Ucp1 mRNA level” value [6]?
The value was “abrogated; also recorded: suppressed”.

`COc1cc(CC(C)N)c(OC)cc1I` (stereo not shown) [DOI, 2,5-dimethoxy-4-iodoamphetamine] was tested. Which “glycerol release (lipolysis)” value (Htr2a [5]) did it give?
The value was “suppressed lipolysis; also recorded: reduced the glycerol release”.

And the “mRNA levels of lipogenic genes” value (Htr2a [7])?
The value was “increased”.

`O=C(c1ccc(F)cc1)C1CCN(CCn2c(=O)[nH]c3ccccc3c2=O)CC1` [ketanserin, 3-{2-[4-(4-fluorobenzoyl)piperidin-1-yl]ethyl}quinazoline-2,4(1H,3H)-dione] was tested. Which “lipogenesis (optical density of Oil Red O extract)” value (Htr2a [8]) did it give?
The value was “decreased lipogenesis; also recorded: reduced the optical density of the extract”.
